From paper PMC4965013, “Open Source Drug Discovery with the Malaria Box Compound Collection for Neglected Diseases and Beyond” (PLoS Pathogens, 2016)
Where two headings read alike, the source gives them in different places.

Columns and labels:
[1] = target: PfPMT (Plasmodium falciparum, UniProt Q8IDQ9); experiment: PfPMT gene replacement yeast growth
[2] = test system: T. cruzi Tulahuen; settings: ref [84]; read-out: Trypanosoma cruzi Tulahuen intracellular amastigotes in MRC5 cell line EC50; cited from earlier work
[3] = test system: Schistosoma mansoni schistosomula (somules); experiment: S. mansoni somules phenotypic screen Caffrey
[4] = test system: P. falciparum 3D7 gametocytes stage IV-V; experiment: Gametocyte pLDH assay UMIL; format: cell-based; settings: Plasmodium falciparum, 3D7, 72 h
Protocol: Columns BO-BR: Taramelli group (Columns BO-BP data presented first in this paper, Columns BQ-BR are new data except as noted below). Gametocytocidal activity at UMIL. The Malaria Box compounds were used for primary screening against P. falciparum 3D7 gametocytes and subsequently for IC50 determination against Pf gametocytes obtained from the 3D7 and the 3D7elo1-pfs16-CBG99 transgenic strain [74], as previously described. The primary screening was performed on stage IV-V gametocytes from the 3D7 strain at 3.7 µM, in 96 well plates, using 100 nM epoxomicin and 1 µM DHA as positive controls and 0.5% DMSO as negative untreated control. […] The dose-response experiments were performed in 96 well plates using the 3D7 strain (pLDH, 72+72h, column BR in heat map) and the 3D7elo1-pfs16-CBG99 (luciferase assay, 72h, column BQ in heat map). Data analysis was performed as described.

[5] = test system: P. falciparum in vitro translation; parameters: method as in ref [19] (a number printed in a supplementary file, which may have a reference list of its own: not looked up in the article's list); settings: 1 µM; ref [19]; cited from earlier work
[6] = test system: Naegleria fowleri trophozoites; experiment: Naegleria fowleri CellTiter-Glo; format: cell-based; settings: 1µM
Summary of the method: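 Growth inhibition of Naegleria fowleri trophozoites in vitro, read as cellular ATP by CellTiter-Glo 2.0 luminescence in lysed cells, output in relative light units.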

[7] = Mouse oral PK single dose; format: in vivo; settings: male, CD-1, mouse, plasma, 140 umol/kg; 140 μmol/kg oral
Protocol: Columns GD-GJ: Wuxi Inc. data for MMV (data presented first in this paper) PK/DMPK Parameters: Fasted animals (Male CD-1 mouse, 7-9 weeks age, 30±10 g, n=3) obtained from an approved vendor (SLAC Laboratory Animal Co. Ltd., Shanghai, China or Sino-British SIPPR/BK Laboratory Animal Co. Ltd Shanghai, China) were administered with a single oral dose (140 μmol/kg) using DMSO: 1% HPMC (5:95) as a vehicle. Blood sampling was performed via the submandibular or saphenous vein (t=0.083, 0.25, 1, 2, 4, 6 and 9 h) and transferred into microcentrifuge tubes containing Sodium Heparin (1,000 IU/ml) as anti-coagulant placed on wet ice until processed for plasma by centrifugation at approximately 4°C, 3000×g for 15 min. Plasma samples were stored in polypropylene tubes, quick frozen over dry ice and kept at -70±10°C until LC/MS/MS analysis. LC/MS/MS methods for the quantitative determination compounds plasma levels were developed with an internal standard. […] (Phoenix WinNonlin, version 6.2.1, Pharsight, Mountain View, CA) and expressed as Cmax & AUC0-last. […] AUC0-last is the area under the curve expressed as >12 h*μM (Yes or No). Plasma protein binding assay (PPB) (CD-1 mouse and human) expressed as <95% bound, >95% bound, or >99% bound. Kinetic Solubility at pH 7.4 was determined by liquid chromatography/chemiluminescence nitrogen detection (LC/CLND) and was scored as greater than 20µM (Yes or No). hERG inhibition was measured at 11µM by the QPatch- HT system and is expressed as “Yes” if greater than 45% inhibited at 11µM and “No” if less than or equal to 45% inhibited at 11µM. As part of the Drug-Drug Interaction studies (DDI issues), 5 human and 1 mouse CYP isoforms (1A2, 2C9, 2C19, 2D6, 3A4-M, 3A4-T) were tested for inhibition assay at 10 µM. […] Otherwise DDI issues were scored as “No”. Positive and negative controls were run for each assay (Table 1).

[8] = test system: HIV-1 JR-FL or HIV-1 NL4-3 pseudoviruses; experiment: HIV-1 pseudovirus infection luciferase; format: cell-based; settings: Human immunodeficiency virus 1, HXB2 / NL43, read-out: HIV HXB2 % inhibition rep2 in U87 Luc
[9] = test system: P. falciparum NF54Pfs16 gametocytes stage IV-V; settings: 5µM; ref [62]; cited from earlier work
[10] = test system: Trypanosoma brucei rhodesiense STIB 900; settings: ref [84]; cited from earlier work
[11] = test system: Mycobacterium tuberculosis mc26220 non-replicating; experiment: microbe, parasite or virus in culture; format: cell-based
[12] = test system: T. b. brucei Squib 427; settings: ref [84]; read-out: Trypansoma brucei brucei Squib 427 IC50; cited from earlier work
[13] = test system: P. falciparum HB3; experiment: Stage-specificity / mitochondrial integrity image assay Ayong; format: cell-based; settings: 10µM
[14] = test system: HepG2-A16-CD81EGFP cells; settings: 50uM; ref [58, 65]; cited from earlier work
[15] = test system: U87-CD4-CCR5 or U87-CD4-CXCR4 cells; experiment: U87 cell viability MTT; format: cell-based; settings: for U87 % cell death rep3 (X4 P24 Washout expt): 5uM; for U87 % Cell Death rep3 (R5 P24 Washout expt) / U87 % cell death rep3 (R5 P24 NO Washout expt) / U87 % cell death rep3 (X4 P24 NO Washout expt) / U87 Luc % cell death rep1 / U87 Luc % cell death rep2: 5µM
[16] = read-out: % Inhibition in PfPMT gene replacement yeast, no added choline
[17] = read-out: % Inhibition in PfPMT gene replacement yeast, with added choline
[18] = 3.7 µM, read-out: gametocytes 3D7, stage IV-V, pLDH, 72+72h, %inhibition
[19] = 3.7µM, read-out: gametocytes 3D7, stage IV-V, pLDH, 72h, %inhibition

Chain of PfPMT (Q8IDQ9 whole entry): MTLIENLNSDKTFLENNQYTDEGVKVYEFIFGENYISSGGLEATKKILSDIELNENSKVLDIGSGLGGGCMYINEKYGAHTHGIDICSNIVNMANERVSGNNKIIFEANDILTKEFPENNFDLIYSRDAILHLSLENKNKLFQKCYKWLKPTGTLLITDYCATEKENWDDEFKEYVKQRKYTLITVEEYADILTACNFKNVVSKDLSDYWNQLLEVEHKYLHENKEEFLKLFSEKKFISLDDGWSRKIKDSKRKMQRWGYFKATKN

| Structure (SMILES) | inhibition at 100 µM [1, 16] [%] | inhibition at 100 µM [1, 17] [%] | EC50 [2] [µM] | S. mansoni newly transformed schistosomula, visual tox scale, 0 = none, 4=most damaged ([3]; 24 h at 2.5µM) | S. mansoni newly transformed schistosomula, visual tox scale, 0 = none, 4=most damaged ([3]; 72 h at 2.5µM) | inhibition at 3.7 µM [4, 18] [%] | inhibition at 3.7 µM [4, 19] [%] | Translation Inhibitors (nl = 1.0, in vitro translation with P. falciparum lysate) [5] | Naegleria fowleri % growth [6] [%] | AUC [7] [µM·h] | Cmax [7] [nM] | inhibition at 5 µM [8] [%] | inhibition at 25 µM [11] [%] | HepG2 toxicity rep 1 [14] [%] | U87 % cell death rep3 (X4 P24 Washout expt) [15] [%] | U87 % Cell Death rep3 (R5 P24 Washout expt) [15] [%] | U87 % cell death rep3 (R5 P24 NO Washout expt) [15] [%] | U87 % cell death rep3 (X4 P24 NO Washout expt) [15] [%] | U87 Luc % cell death rep1 [15] [%] | U87 Luc % cell death rep2 [15] [%] | other results |
| --- | --- | --- | --- | --- | --- | --- | --- | --- | --- | --- | --- | --- | --- | --- | --- | --- | --- | --- | --- | --- | --- |
| CCN(CC)c1cc(C)c2cc(NC(=O)c3cccc(OC)c3)ccc2n1 [MMV000498] | 16 | 0 | 13.7 | 2 | 0 | 11 | 5 | 0.87 | 80 | > 12 | > 1000 | 55 | 20 | 0.453 | -4 | 1.63 | 33 | 13 | 21 | 64 | gametocyte late stage (IV-V) luciferase % inhibition [9]: -3.24%; EC50 [10]: 0.679 µM; IC50 [12]: 14.3 µM; P. falciparum HB3 early ring (ER) stage activity [13]: ✖; P. falciparum HB3 late ring (LR) stage activity [13]: ✖; P. falciparum HB3 trophozoite (T) stage activity [13]: ✖; HepG2 toxicity rep 2 [14]: -1.24% |
| COc1cc2cc(C(=O)Nc3ccccc3)c(N)nc2cc1OC [MMV006767] | 0 | 0 |  | 0 | 2 | 2.43 | 10 | 0.75 | 95 | > 12 | > 1000 | 51 | 1.39 | 82 | 51 | -0.103 | 95 | 106 | 75 | 43 | gametocyte late stage (IV-V) luciferase % inhibition [9]: 2%; P. falciparum HB3 late ring (LR) stage activity [13]: T,S; P. falciparum HB3 trophozoite (T) stage activity [13]: ✖; HepG2 toxicity rep 2 [14]: 90% |
| COc1ccc(C(=O)Nc2ccc3nc(N4CCCCC4)cc(C)c3c2)cc1OC [MMV019758] | 0 | 0 | 14.6 | 0 | 0 | 11 | 12 | 0.98 | 87 | > 12 | > 1000 | -36 | 24 | -1 | -25 | 3.19 | 39 | -2.11 | -1.12 | 4.5 | EC50 [10]: 10.9 µM; IC50 [12]: 16.2 µM; P. falciparum HB3 late ring (LR) stage activity [13]: ✖; HepG2 toxicity rep 2 [14]: -1.21% |
| CCOC(=O)c1cnc2ccc(OC)cc2c1NCc1ccccc1 [MMV665813] | 0 | 0 | 13 | 1 | 1 | 12 | 26 | 1.47 | 91 | < 12 | < 1000 | -1.56 | 23 | -1.52 | 12 | -10 | -9 | 46 | -52 | 36 | gametocyte late stage (IV-V) luciferase % inhibition [9]: 5.69%; EC50 [10]: 4.95 µM; IC50 [12]: 14.9 µM |
